We go through 1 compound from patent US20190321302A1, “PRESERVATION OF MICROORGANISMS” (Yun NV, priority 2016, published 2019).

Molecules are shown by their SMILES. Like-named read-outs stand apart in the source and are kept apart here.

The conditions of data set [1]: at 25° C.; cited from earlier work.
Data set [2] deals with E. coli (DSM 1576), Ps. Aeruginosa (DSM 1128), C. albicans (DSM 1386), St. aureus (DSM 799), As. Niger (DSM 1988). Particulars: base cream without capsules, pH 4.5, 4 weeks, concentrations as low as 0.1%.
Method: This was proven by conducting a challenge test on the cream (without the probiotic capsules) with the different preservative concentrations, according to the European Pharmacopeia (5.1.3).
Challenge tests are used to determine the efficacy of the antimicrobial conservation system for dermatological products. […] Sorbic acid was tested in concentrations : 0.5%-0.3%-0.1%-0% (Control).
The challenged organisms were E. coli (DSM 1576), Ps. Aeruginosa (DSM 1128), C. albicans (DSM 1386), St. aureus (DSM 799), As. Niger (DSM 1988).
Addition of the challenged organisms (in 100 gram product) happens at 10^6 CFU/ML. Sampling happens after 6 hours, 24 hours, 7-14 & 28 days. A challenge test is successful if at least a 3 log reduction is visible after 7 days for the bacteria and a 2 log reduction for the yeasts/molds after 14 days—3 log after 4 weeks. Results shown are after 4 weeks of sampling.
The subject of the next data set is probiotic capsules. Particulars: for % survival: 3 months cold storage, relative to Blanc; for CFU/g: capsules 15% in basic cream pH 4.5, 3 months cold storage. How it is done: A basic cream without preservatives/perfume was used as basis for further tests. The preservative tested was Sorbic acid (2,4 hexadienoic acid), an organic acid with pKa 4.76 at 25° C. at different concentrations. The pH of the cream for all the tested conditions was adjusted to 4.5 using HCl/NaOH.
The probiotic capsules are suspended 15% (m/) in the cream base with the different preservative concentrations. To simulate release of the probiotics in vivo, the use of a Citric acid buffer was used in vitro. The citric acid will dissolve the membrane of the capsule and hereby release the probiotics inside the capsule. CA buffer was made by dissolving 31.2 g Na2HPo4 & 1.25 g Citric acid in 971.54 g Sterile water. The Final solution is isotonic with a pH of 7.4±0.2.
The sample creams are sampled in duplo after which it is dissolved in CA-buffer. A further 1/10 dilution series is made and 0.1 ml is spread on MRS agar plates using the ‘copacabana spread plating method’ with 5 glass beads diameter 4 mm. Plating happens in duplo and results (after 3 days incubation 37° C.) are calculated as CFU/ gram cream. Storage happens at 4° C. & 25° C. Sampling happens after 1-2-3 months.

Usually pKa stands for the negative logarithm of the acid dissociation constant. Consider `CC=CC=CC(=O)O` [Sorbic acid, 2,4 hexadienoic acid], for which the pKa in data set [1] was 4.76. Further, the “preservative effect in challenge test” value in data set [2] is given as “good preservative effect”. In addition, the figures for the “% survival” value with probiotic capsules (sorbic acid 0.03 %), with probiotic capsules (sorbic acid 0.1 %) and in the data set on probiotic capsules (sorbic acid 0.3 %) were 68%, 79% and 76%, respectively. Also, the CFU/g is 6.E+07 CFU/g with probiotic capsules (sorbic acid 0.03 %), 7.E+07 CFU/g in the data set on probiotic capsules (sorbic acid 0.1 %) and 7.E+07 CFU/g with probiotic capsules (sorbic acid 0.3 %).
